PubChem BioAssay AID2060624 (Molecular Pharmacology Branch, DTP, NCI, 2025)
“And” between values parts separate entries of the source, which are not always exact repeats. Identical values can stand only once.

Tested on: 217524-143-R1-J4-PDC spheroids with HUVEC/MSC, viability
Assay: Anticancer human tumor 217524-143-R1-J4-PDC patient-derived pancreatic carcinoma cell line growth inhibition [CLK]
Details: for viability, T/C: stronger effect = lower value
Excerpt: A high-throughput screen of multi-cell type tumor spheroids was designed to identify active combinations of […] and targeted small molecules. Complex spheroids include a stromal component modeled by human endothelial cells (HUVEC) and fibroblasts modeled by human mesenchymal stem cells (MSCs). The concentration ranges selected for each drug and investigational agent were based upon clinically achievable concentrations if the clinical Cmax of the agent was known.
Compounds. The drugs and investigational agents: cirtuvivint (SM08502; NSC835563), CC-671 (NSC850746), vemurafenib (NSC761431), tapotoclax (NSC804041), sotorasib (NSC818433), adagrasib (NSC831453), MRTX-1133 (NSC836407), BAY2416964 (NSC825713), copanlisib (NSC816437), inavolisib (NSC800729), abemaciclib (NSC768073), osimertinib (NSC779217), entinostat (NSC756642), eltanexor (KPT-8602, NSC794443), venetoclax (NSC766270), ceralasertib (NSC777638), bortezomib (NSC756655), olaparib (NSC753686), talazoparib (NSC767125), alisertib (NSC759677), peposertib (NSC802822), gemcitabine (NSC613327), 5-fluorouracil (NSC19893), SN-38 (NSC673596), oxaliplatin (NSC266046), paclitaxel (NSC125973), and doxorubicin (NSC123127), were obtained from the National Cancer Institute (NCI) Developmental Therapeutics Program Chemical Repository. The FDA-approved anticancer drug set is available from the Developmental Therapeutics Program at https://dtp.cancer.gov/organization/dscb/obtaining/available plates.htm. […] The stock solutions were prepared in dimethyl sulfoxide (DMSO, Sigma-Aldrich, St. Louis, MO, cat. D2650), except for the platinum complexes which were prepared in saline (Quality Biological, Gaithersburg, MD, cat. 114-055-101), at 800-fold the tested concentration and stored at -70 degrees C prior to their use. All drugs and investigational agents were tested over a range starting from a high concentration at or near the clinical Cmax and decreasing in half-log increments. If the clinical Cmax for an agent had not been determined, the highest concentration tested was 10 microM.
Cell Culture. All cells were maintained in an incubator at 37 degrees C and 5% CO2 with 95% humidity. The PDC lines were cultured according to standard operating procedures established by the NCI PDMR. Briefly, all PDCs were thawed and cultured in Matrigel-coated flasks prepared with a working solution of 1X Ham's F-12 nutrient mix, without supplementation (Invitrogen, Waltham, MA, cat. 11765054), 100 U/mL penicillin-streptomycin (Invitrogen, cat. 15140122), and 2.5% Matrigel (Corning Inc., Corning, NY, cat. 354248) for the first three passages. The 947758-054-R-J2-PDC line was cultured in 6B/Colon 1A media, which includes advanced DMEM/F-12 (Thermo Fisher Scientific, cat. 12634028), 10 mM HEPES (Thermo Fisher Scientific, cat. 15630080), 1X GlutaMAX supplement (Thermo Fisher Scientific, cat. 35050061), 0.1 mg/mL primocin (InvivoGen, cat. ant-pm-2), 10% defined fetal bovine serum, heat inactivated (HyClone Laboratories Inc., cat. SH30070.03HI), 1.25 mM N-Acetyl-L-cysteine (Sigma-Aldrich, cat. A9165), 10 mM nicotinamide (Sigma-Aldrich, cat. N0636), 1X B-27 supplement (Thermo Fisher Scientific, cat. 17504044), 1X N-2 supplement (Thermo Fisher Scientific, cat. 17502048), and 10 microM Y-27632 dihydrochloride (Tocris Bioscience, cat. 1254). The 876862-298-R-J1-PDC was cultured in 6E media, which includes all 6B/Colon 1A media components plus 50% L-WRN conditioned media (ATCC, cat. CRL-3276), 50 ng/mL recombinant human EGF recombinant protein (hEGF; Thermo Fisher Scientific, cat. PHG0311), 10 ng/mL recombinant human fibroblast growth factor 10 (hGFG-10; PeproTech, cat. 100-26), 1 ng/mL recombinant human fibroblast growth factor 2 (hFGF-2; PeproTech, cat. 100-18B), and 1 µM prostaglandin E2 (PGE2; Tocris, cat. 2296). The 227483-062-R1-J1-PDC line was cultured in Panc media, containing all 6E components except hFGF-2, with the addition of 500 nM SB-431542 (Selleckchem, cat. S1067) and 10 nM gastrin (Tocris, cat. 3006). […]
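Also: spheroids exposed to agents for seven days before reading.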
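For viability, T/C in this document: 100% = DMSO vehicle control viability.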

`CN1CCN(c2cc(C(=O)Nc3cc4cc(-c5cnn(C)c5)ccc4cn3)ccn2)CC1` was tested, and the viability, T/C (compound 0.1 µM) was 54.9% [middle of 12 runs], the viability, T/C (compound 0.316 µM) was 21.7% [middle of 12 runs] and the viability, T/C (compound 1 µM) was 1.79% [middle of 12 runs]. For the same compound, the viability, T/C (compound 3.16 µM) was 0.9% [middle of 12 runs], the viability, T/C (compound 10 µM) was 0.22% [middle of 9 runs] and the IC50 (compound alone, run of 07/31/2023) was 119 nM [middle of 12 runs].

For `COc1ccc([C@@H](O)c2cc(-c3ncnc4cc(N5CCOCC5)ccc34)c(F)cc2Cl)nn1`, the viability, T/C (compound 0.0316 µM) was 100% and 86.5%, the viability, T/C (compound 0.1 µM) was 68.5% and 86.3% and the viability, T/C (compound 0.316 µM) was 58.5% and 56.8%. For the same compound, the viability, T/C (compound 1 µM) was 52.6% and 42.2%, the viability, T/C (compound 3.16 µM) was 34.3% and 27.2% and the viability, T/C (compound 10 µM) was 10.5% and 11.7%. The IC50 (curve of compound) was 0.756 µM and 0.632 µM.

With `COc1cccc2c1C(=O)c1c(O)c3c(c(O)c1C2=O)CC(O)(C(=O)CO)CC3OC1CC(N)C(O)C(C)O1` (configuration not stated) the viability, T/C (compound 0.0316 µM) was 36.9% and 42.6%, the viability, T/C (compound 0.1 µM) was 24.5% and 29.6% and the viability, T/C (compound 0.316 µM) was 26.5% and 27.4%. The viability, T/C (compound 1 µM) was 16.9% and 18.4%, the viability, T/C (compound 3.16 µM) was 3.52% and 3.31% and the viability, T/C (compound 10 µM) was 1.28% and 0.73%. For the same compound, the IC50 (curve of compound) was < 0.0316 µM.

For `C=CC(=O)N1CCN(c2nc(=O)n(-c3c(C)ccnc3C(C)C)c3nc(-c4c(O)cccc4F)c(F)cc23)C(C)C1` (configuration not stated) + CN1CCN(c2cc(C(=O)Nc3cc4cc(-c5cnn(C)c5)ccc4cn3)ccn2)CC1, the IC50 (curve of first compound, second compound 0.0316 µM) was > 10 µM, the IC50 (curve of first compound, second compound 0.1 µM) was > 10 µM and the IC50 (curve of first compound, second compound 0.316 µM) was < 0.0316 µM. For the same compound, the IC50 (curve of first compound, second compound 1 µM) was < 0.0316 µM, the IC50 (curve of first compound, second compound 3.16 µM) was < 0.0316 µM and the IC50 (curve of first compound, second compound 10 µM) was < 0.0316 µM. It also gave a viability, T/C (second compound 0.0316 µM, first compound 0.0316 µM) of 93.4%, a viability, T/C (second compound 0.0316 µM, first compound 0.1 µM) of 71.5% and a viability, T/C (second compound 0.0316 µM, first compound 0.316 µM) of 67.1%. It also gave a viability, T/C (second compound 0.0316 µM, first compound 1 µM) of 90.5%, a viability, T/C (second compound 0.0316 µM, first compound 3.16 µM) of 111% and a viability, T/C (second compound 0.0316 µM, first compound 10 µM) of 95.4%. It also gave a viability, T/C (second compound 0.1 µM, first compound 0.0316 µM) of 62.3%, a viability, T/C (second compound 0.1 µM, first compound 0.1 µM) of 59% and a viability, T/C (second compound 0.1 µM, first compound 0.316 µM) of 58.7%. The viability, T/C (second compound 0.1 µM, first compound 1 µM) was 64.9%, the viability, T/C (second compound 0.1 µM, first compound 3.16 µM) was 66.7% and the viability, T/C (second compound 0.1 µM, first compound 10 µM) was 57%. The viability, T/C (second compound 0.316 µM, first compound 0.0316 µM) was 25.8%, the viability, T/C (second compound 0.316 µM, first compound 0.1 µM) was 22.5% and the viability, T/C (second compound 0.316 µM, first compound 0.316 µM) was 27%. The viability, T/C (second compound 0.316 µM, first compound 1 µM) was 30.8%, the viability, T/C (second compound 0.316 µM, first compound 3.16 µM) was 31.1% and the viability, T/C (second compound 0.316 µM, first compound 10 µM) was 22.9%. It also gave a viability, T/C (second compound 1 µM, first compound 0.0316 µM) of 1.96%, a viability, T/C (second compound 1 µM, first compound 0.1 µM) of 2.92% and a viability, T/C (second compound 1 µM, first compound 0.316 µM) of 1.65%. It also gave a viability, T/C (second compound 1 µM, first compound 1 µM) of 3.19%, a viability, T/C (second compound 1 µM, first compound 3.16 µM) of 2.93% and a viability, T/C (second compound 1 µM, first compound 10 µM) of 2.27%. It also gave a viability, T/C (second compound 3.16 µM, first compound 0.0316 µM) of 1.06%, a viability, T/C (second compound 3.16 µM, first compound 0.1 µM) of 1.37% and a viability, T/C (second compound 3.16 µM, first compound 0.316 µM) of 1.15%. The viability, T/C (second compound 3.16 µM, first compound 1 µM) was 0.96%, the viability, T/C (second compound 3.16 µM, first compound 3.16 µM) was 1.76% and the viability, T/C (second compound 3.16 µM, first compound 10 µM) was 1.78%. The viability, T/C (second compound 10 µM, first compound 0.0316 µM) was 0.21%, the viability, T/C (second compound 10 µM, first compound 0.1 µM) was 0.25% and the viability, T/C (second compound 10 µM, first compound 0.316 µM) was 0.24%. The viability, T/C (second compound 10 µM, first compound 1 µM) was 0.29%, the viability, T/C (second compound 10 µM, first compound 3.16 µM) was 0.41% and the viability, T/C (second compound 10 µM, first compound 10 µM) was 0.29%.
